Test system: triple-negative breast tumors
Assay: Cisplatin treatment of patients with triple-negative breast tumors, response by Miller-Payne score (GSE28330; Cisplatin-1 and Cisplatin-2 trials)
Format: in vivo, human
Method: Two publically available data sets from clinical trial of Cisplatin treatment of patients with triple-negative breast tumors [GSE28330 GEO database][59] were processed and the number of LST_10 Mb was calculated for each tumor with good quality of measured profile. Genomic profiles were measured by two types of chip: Affymetrix Oncoscan 70K (Dataset 2) and Oncoscan 300K (Dataset 1). Information about mutational status of BRCA1/2 was available for some tumors. Response to treatment was measured by Miller-Payne score, where 4 and 5 were considered as “positive response”, while scores <4 were considered as “no response” [59] Case by case and summary results are presented in Table 2 and Tables 3-5 (statistical comparisons were performed by the Fisher exact test).
(i) TCGA cohort: 467 tumors with high quality SNP-array profile and available normal/tumor exome sequencing results in variant call format (vcf) from the TCGA Breast Invasive carcinoma dataset were used. (ii) In-house TNBC cohort: a series of 104 TNBC enriched in BRCAi germline mutated cased. (iii) the publically available data from Cisplatin-1 and Cisplatin-2 clinical trials cohorts: 54 TNBCs with suitable quality of Oncoscan (Affymetrix) array profile were obtained from public GEO repository GSE28330 (66).
HRD is linked to the response to platinum based chemotherapy. Birkbak et al. analyzed SNParray profiles from a series of 79 patients with TNBC, including 28 patients treated by cisplatin prior to surgery (Cisplatin-1 trial) and 51 patients treated with cisplatin in addition to bevacizumab (Cisplatin-2 trial) (59).

Structure (SMILES): N.N.[Cl][Pt][Cl] [Cisplatin, cisplatin]
- Non Responders (number of tumors) (BRCA1/2 inactivated tumors): 8
- Responders (number of tumors) (BRCA1/2 inactivated tumors): 9
- Miller Payne Response Score 4 (CR), number of tumors (LST^hi tumors): 7
- Miller Payne Response Score 5 (pCR), number of tumors (LST^hi tumors): 11
- Miller Payne Response Score 4 (CR), number of tumors (LST^lo tumors): 1
- Miller Payne Response Score 5 (pCR), number of tumors (LST^lo tumors): 0
- Non Responders (Miller-Payne 0-3), number of tumors (LST_high tumors): 15
- Responders (Miller-Payne 4-5), number of tumors (LST_high tumors): 18
- Responders (Miller-Payne 4-5), number of tumors (LST_high tumors, listed as cisplatin): 18/33
- Non Responders (Miller-Payne 0-3), number of tumors (LST_low tumors): 20
- Responders (Miller-Payne 4-5), number of tumors (LST_low tumors): 1
- Responders (Miller-Payne 4-5), number of tumors (LST_low tumors, listed as cisplatin): 1/21
- Non Responders (number of tumors) (NON BRCA1/2 or NA tumors): 27
- Responders (number of tumors) (NON BRCA1/2 or NA tumors): 10

From US11149316B2, “Methods for detecting inactivation of the homologous recombination pathway (BRCA1/2) in human tumors” (INSTITUT CURIE, priority 2013, dated 2021)
